≈ marks a conversion by molar mass, not a printed value.
Assays:
Staphylococcus aureus [1] = assay: Antibacterial activity against methicillin-sensitive Staphylococcus aureus ATCC 29213 assessed as inhibition of bacterial growth incubated for 18 hrs by two-fold serial dilution method; type: functional
[2] = test system: Staphylococcus epidermidis; assay: Antibacterial activity against Staphylococcus epidermidis ATCC12228 assessed as inhibition of bacterial growth incubated for 18 hrs by two-fold serial dilution method; type: functional
Staphylococcus aureus [3] = assay: Antibacterial activity against methicillin-resistant Staphylococcus aureus ATCC 43300 assessed as inhibition of bacterial growth incubated for 18 hrs by two-fold serial dilution method; type: functional
Enterococcus faecium = assay: Antibacterial activity against Enterococcus faecium ATCC19434 assessed as inhibition of bacterial growth incubated for 18 hrs by two-fold serial dilution method; type: functional
[4] = test system: Mycoplasmoides pneumoniae; assay: Antibacterial activity against Mycoplasma pneumoniae ATCC15531 assessed as inhibition of bacterial growth incubated for 18 hrs by two-fold serial dilution method; type: functional
MCF7 = assay: Cytotoxicity against human MCF7 cells assessed as cell growth inhibition measured after 72 hrs by MTT assay; type: functional, cell-based; details: MCF7, 72 h
[5] = test system: Mycoplasmoides pneumoniae; assay: Antibacterial activity against drug resistant Mycoplasma pneumoniae assessed as inhibition of bacterial growth incubated for 18 hrs by two-fold serial dilution method; type: functional
HGC-27 = assay: Cytotoxicity against human HGC-27 cells assessed as cell growth inhibition measured after 72 hrs by MTT assay; type: functional, cell-based; details: HGC-27, 72 h
HepG2 = assay: Cytotoxicity against human HepG2 cells assessed as cell growth inhibition measured after 72 hrs by MTT assay; type: functional, cell-based; details: HepG2, 72 h
HT-29 = assay: Cytotoxicity against human HT-29 cells assessed as cell growth inhibition measured after 72 hrs by MTT assay; type: functional, cell-based; details: HT-29, 72 h
U-87 MG = assay: Cytotoxicity against human U87 cells assessed as cell growth inhibition measured after 72 hrs by MTT assay; type: functional, cell-based, U-87MG ATCC
[6] = test system: Mycoplasmoides pneumoniae; assay: Antibacterial activity against Mycoplasma pneumoniae ATCC29342 assessed as inhibition of bacterial growth incubated for 18 hrs by two-fold serial dilution method; type: functional

Compound	MIC (Staphylococcus aureus [1]) [µg/mL]	MIC [2] [µg/mL]	MIC (Staphylococcus aureus [3]) [µg/mL]	MIC (Enterococcus faecium) [µg/mL]	MIC [4] [µg/mL]	IC50 (MCF7) [µM]	MIC [5] [µg/mL]	IC50 (HGC-27) [µM]	IC50 (HepG2) [µM]	IC50 (HT-29) [µM]	IC50 (U-87 MG) [µM]	MIC [6] [µg/mL]
C=C[C@]1(C)C[C@@H](OC(=O)CNC(=O)Nc2cc(Cl)cc(Cl)c2)[C@]2(C)[C@H](C)CC[C@]3(CCC(=O)[C@H]32)[C@@H](C)[C@@H]1O	0.5 (≈ 0.884 µM)	> 64	0.5 (≈ 0.884 µM)	32 (≈ 56.6 µM)								
C=C[C@]1(C)C[C@@H](OC(=O)CNC(=S)NC(=O)c2ccc(Cl)cc2)[C@]2(C)[C@H](C)CC[C@]3(CCC(=O)[C@H]32)[C@@H](C)[C@@H]1O	16 (≈ 27.8 µM)	> 64	16 (≈ 27.8 µM)	8 (≈ 13.9 µM)								
C=C[C@]1(C)C[C@@H](OC(=O)CNC(=O)Nc2cccc(Br)c2)[C@]2(C)[C@H](C)CC[C@]3(CCC(=O)[C@H]32)[C@@H](C)[C@@H]1O	0.0625 (≈ 0.109 µM)	> 64	0.25 (≈ 0.434 µM)	4 (≈ 6.95 µM)	0.25 (≈ 0.434 µM)	> 10	1 (≈ 1.74 µM)	3.95	> 10	> 10	> 10	0.25 (≈ 0.434 µM)
C=C[C@]1(C)C[C@@H](OC(=O)CNC(=O)Nc2ccc(Cl)cc2)[C@]2(C)[C@H](C)CC[C@]3(CCC(=O)[C@H]32)[C@@H](C)[C@@H]1O	0.25 (≈ 0.471 µM)	> 64	0.25 (≈ 0.471 µM)	16 (≈ 30.1 µM)		> 10		> 10	> 10	> 10	> 10	
C=C[C@]1(C)C[C@@H](OC(=O)CNC(=O)Nc2ccccc2Cl)[C@]2(C)[C@H](C)CC[C@]3(CCC(=O)[C@H]32)[C@@H](C)[C@@H]1O	0.5 (≈ 0.941 µM)	> 64	0.5 (≈ 0.941 µM)	8 (≈ 15.1 µM)								
C=C[C@]1(C)C[C@@H](OC(=O)CNC(=O)Nc2ccc(Br)cc2)[C@]2(C)[C@H](C)CC[C@]3(CCC(=O)[C@H]32)[C@@H](C)[C@@H]1O		> 64		8 (≈ 13.9 µM)	1 (≈ 1.74 µM)	> 10		> 10	> 10	> 10	> 10	0.5 (≈ 0.869 µM)
C=C[C@]1(C)C[C@@H](OC(=O)CNC(=S)NC(=O)c2ccc(Br)cc2)[C@]2(C)[C@H](C)CC[C@]3(CCC(=O)[C@H]32)[C@@H](C)[C@@H]1O	16 (≈ 25.8 µM)	> 64	16 (≈ 25.8 µM)	16 (≈ 25.8 µM)								
C=C[C@]1(C)C[C@@H](OC(=O)CNC(=S)NC(=O)c2ccccc2)[C@]2(C)[C@H](C)CC[C@]3(CCC(=O)[C@H]32)[C@@H](C)[C@@H]1O	> 64	> 64	> 64	32 (≈ 59.2 µM)								
C=C[C@]1(C)C[C@@H](OC(=O)CO)[C@]2(C)[C@H](C)CC[C@]3(CCC(=O)[C@H]32)[C@@H](C)[C@@H]1O [PLEUROMULIN]	1 (≈ 2.64 µM)	16 (≈ 42.3 µM)	2 (≈ 5.28 µM)	32 (≈ 84.5 µM)	0.125 (≈ 0.33 µM)		0.25 (≈ 0.66 µM)					0.0625 (≈ 0.165 µM)
C=C[C@]1(C)C[C@@H](OC(=O)CNC(=O)Nc2cccc3ccccc23)[C@]2(C)[C@H](C)CC[C@]3(CCC(=O)[C@H]32)[C@@H](C)[C@@H]1O	2 (≈ 3.66 µM)	> 64	2 (≈ 3.66 µM)	16 (≈ 29.3 µM)								
C=C[C@]1(C)C[C@@H](OC(=O)CNC(=S)NCCCCCCCCCCCCCCCCCC)[C@]2(C)[C@H](C)CC[C@]3(CCC(=O)[C@H]32)[C@@H](C)[C@@H]1O	4 (≈ 5.8 µM)	> 64	2 (≈ 2.9 µM)	32 (≈ 46.4 µM)								
C=C[C@]1(C)C[C@@H](OC(=O)CNC(=S)Nc2ccc3ccccc3c2)[C@]2(C)[C@H](C)CC[C@]3(CCC(=O)[C@H]32)[C@@H](C)[C@@H]1O	16 (≈ 28.4 µM)	> 64	4 (≈ 7.11 µM)	32 (≈ 56.9 µM)								
C=C[C@]1(C)C[C@@H](OC(=O)CNC(=O)Nc2ccccc2-c2ccccc2)[C@]2(C)[C@H](C)CC[C@]3(CCC(=O)[C@H]32)[C@@H](C)[C@@H]1O	4 (≈ 6.98 µM)	> 64	4 (≈ 6.98 µM)	32 (≈ 55.9 µM)								
C=C[C@]1(C)C[C@@H](OC(=O)CNC(=S)Nc2ccc(F)cc2)[C@]2(C)[C@H](C)CC[C@]3(CCC(=O)[C@H]32)[C@@H](C)[C@@H]1O	1 (≈ 1.88 µM)	> 64	0.25 (≈ 0.471 µM)	16 (≈ 30.1 µM)								
C=C[C@]1(C)C[C@@H](OC(=O)CNC(=O)NC(=O)c2cccc(F)c2)[C@]2(C)[C@H](C)CC[C@]3(CCC(=O)[C@H]32)[C@@H](C)[C@@H]1O	0.5 (≈ 0.921 µM)	> 64	0.25 (≈ 0.461 µM)	16 (≈ 29.5 µM)		> 10		> 10	> 10	> 10	> 10	

Reference: ChEMBL document CHEMBL5143602, “Design, synthesis and antibacterial evaluation of pleuromutilin derivatives” (Bioorg Med Chem, 2022)
